Experimental data reported in PubChem BioAssay AID1963981 (Molecular Pharmacology Branch, DTP, NCI, 2024).

System: 354836-022-R-J1-PDC multicell spheroid viability
Assay: Anticancer human tumor 354836-022-R-J1-PDC patient-derived head and neck squamous cell carcinoma cell line growth inhibition [PI3K]
Conditions: for IC50: curve of first compound; for viability, T/C: stronger effect = lower value; active = viability on the fitted dose curve at most 10% of control; inactive = the rest
How it was run: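 Combination activity was assessed by viability in multicellular tumor spheroids carrying HUVEC and MSC components. Agents were tested with PI3K inhibitors from a Cmax-based top dose (or 10 microM) downward in half-log increments.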

[1] = second compound 0.00316 µM, first compound 0.0316 µM
[2] = second compound 0.00316 µM, first compound 0.1 µM
[3] = second compound 0.00316 µM, first compound 0.316 µM
[4] = second compound 0.00316 µM, first compound 1 µM
[5] = second compound 0.00316 µM, first compound 3.16 µM
[6] = second compound 0.00316 µM, first compound 10 µM
[7] = second compound 0.01 µM, first compound 0.0316 µM
[8] = second compound 0.01 µM, first compound 0.1 µM
[9] = second compound 0.01 µM, first compound 0.316 µM
[10] = second compound 0.01 µM, first compound 1 µM
[11] = second compound 0.01 µM, first compound 3.16 µM
[12] = second compound 0.01 µM, first compound 10 µM
[13] = second compound 0.0316 µM, first compound 0.0316 µM
[14] = second compound 0.0316 µM, first compound 0.1 µM
[15] = second compound 0.0316 µM, first compound 0.316 µM
[16] = second compound 0.0316 µM, first compound 1 µM
[17] = second compound 0.0316 µM, first compound 3.16 µM
[18] = second compound 0.0316 µM, first compound 10 µM
[19] = second compound 0.1 µM, first compound 0.0316 µM
[20] = second compound 0.1 µM, first compound 0.1 µM
[21] = second compound 0.1 µM, first compound 0.316 µM
[22] = second compound 0.1 µM, first compound 1 µM
[23] = second compound 0.1 µM, first compound 3.16 µM
[24] = second compound 0.1 µM, first compound 10 µM
[25] = second compound 0.316 µM, first compound 0.0316 µM
[26] = second compound 0.316 µM, first compound 0.1 µM
[27] = second compound 0.316 µM, first compound 0.316 µM
[28] = second compound 0.316 µM, first compound 1 µM
[29] = second compound 0.316 µM, first compound 3.16 µM
[30] = second compound 0.316 µM, first compound 10 µM
[31] = second compound 1 µM, first compound 0.0316 µM
[32] = second compound 1 µM, first compound 0.1 µM
[33] = second compound 1 µM, first compound 0.316 µM
[34] = second compound 1 µM, first compound 1 µM
[35] = second compound 1 µM, first compound 3.16 µM
[36] = second compound 1 µM, first compound 10 µM
[37] = second compound 3.16 µM, first compound 0.0316 µM
[38] = second compound 3.16 µM, first compound 0.1 µM
[39] = second compound 3.16 µM, first compound 0.316 µM
[40] = second compound 3.16 µM, first compound 1 µM
[41] = second compound 3.16 µM, first compound 3.16 µM
[42] = second compound 3.16 µM, first compound 10 µM
[43] = second compound 10 µM, first compound 0.0316 µM
[44] = second compound 10 µM, first compound 0.1 µM
[45] = second compound 10 µM, first compound 0.316 µM
[46] = second compound 10 µM, first compound 1 µM
[47] = second compound 10 µM, first compound 3.16 µM
[48] = second compound 10 µM, first compound 10 µM
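Note: spheroids exposed to agents for seven days before the viability read.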

C#Cc1c(F)ccc2cc(O)cc(-c3ncc4c(N5CC6CCC(C5)N6)nc(OCC56CCCN5CC(F)C6)nc4c3F)c12 (stereo not given) + CC(Nc1ccc2c(c1)OCCn1cc(N3C(=O)OCC3C(F)F)nc1-2)C(N)=O
> 10 µM: IC50 (second compound 0.00316 µM) | IC50 (second compound 0.01 µM) | IC50 (second compound 0.0316 µM) | IC50 (second compound 0.1 µM) | IC50 (second compound 0.316 µM) | IC50 (second compound 1 µM)
inactive: viability, T/C [1] 106% | viability, T/C [2] 78% | viability, T/C [3] 96.6% | viability, T/C [4] 92.7% | viability, T/C [5] 97.4% | viability, T/C [6] 99.1% | viability, T/C [7] 97.5% | viability, T/C [8] 98.9% | viability, T/C [9] 93.4% | viability, T/C [10] 96.4% | viability, T/C [11] 103% | viability, T/C [12] 99% | viability, T/C [13] 87.3% | viability, T/C [14] 108% | viability, T/C [15] 80.9% | viability, T/C [16] 95.5% | viability, T/C [17] 97.8% | viability, T/C [18] 92.9% | viability, T/C [19] 78.7% | viability, T/C [20] 103% | viability, T/C [21] 78.1% | viability, T/C [22] 92.4% | viability, T/C [23] 88.8% | viability, T/C [24] 71.8% | viability, T/C [25] 70.8% | viability, T/C [26] 89.1% | viability, T/C [27] 79.5% | viability, T/C [28] 79.7% | viability, T/C [29] 83.5% | viability, T/C [30] 61.9% | viability, T/C [31] 70.2% | viability, T/C [32] 56.8% | viability, T/C [33] 55.9% | viability, T/C [34] 59.7% | viability, T/C [35] 57.2% | viability, T/C [36] 54%

CC(Cn1ccc(-c2ccc(C#N)c(Cl)c2)n1)NC(=O)c1cc(C(C)O)[nH]n1 (stereo not given) + CC(Nc1ncnc2nc[nH]c12)c1cc2cccc(Cl)c2c(=O)n1-c1ccccc1
inactive: viability, T/C [13] 99.3% | viability, T/C [14] 91.8% | viability, T/C [15] 96.6% | viability, T/C [16] 112% | viability, T/C [17] 97.7% | viability, T/C [18] 84.4% | viability, T/C [19] 87.8% | viability, T/C [20] 102% | viability, T/C [21] 89.6% | viability, T/C [22] 104% | viability, T/C [23] 85% | viability, T/C [24] 93.3% | viability, T/C [25] 91.2% | viability, T/C [26] 90.6% | viability, T/C [27] 97.6% | viability, T/C [28] 87.9% | viability, T/C [29] 101% | viability, T/C [30] 89.1% | viability, T/C [31] 106% | viability, T/C [32] 91.4% | viability, T/C [33] 93.1% | viability, T/C [34] 108% | viability, T/C [35] 83.5% | viability, T/C [36] 78.8% | viability, T/C [37] 113% | viability, T/C [38] 96.8% | viability, T/C [39] 95% | viability, T/C [40] 97.2% | viability, T/C [41] 90.7% | viability, T/C [42] 83.7% | viability, T/C [43] 96.5% | viability, T/C [44] 93.2% | viability, T/C [45] 83.8% | viability, T/C [46] 96.9% | viability, T/C [47] 95.2% | viability, T/C [48] 75.7%
> 10 µM: IC50 (second compound 0.0316 µM) | IC50 (second compound 0.1 µM) | IC50 (second compound 0.316 µM) | IC50 (second compound 1 µM) | IC50 (second compound 3.16 µM) | IC50 (second compound 10 µM)

C[C@@H](NC(=O)c1ncnc(N)c1Cl)c1ncc(C(=O)Nc2cc(C(F)(F)F)c(Cl)cn2)s1 + CC(Nc1ncnc2nc[nH]c12)c1cc2cccc(Cl)c2c(=O)n1-c1ccccc1
inactive: viability, T/C [13] 88.8% | viability, T/C [14] 84.2% | viability, T/C [15] 102% | viability, T/C [16] 85% | viability, T/C [17] 99.7% | viability, T/C [18] 75.5% | viability, T/C [19] 90.3% | viability, T/C [20] 104% | viability, T/C [21] 108% | viability, T/C [22] 89% | viability, T/C [23] 89.6% | viability, T/C [24] 59.4% | viability, T/C [25] 103% | viability, T/C [26] 104% | viability, T/C [27] 92.5% | viability, T/C [28] 98.8% | viability, T/C [29] 87.9% | viability, T/C [30] 62.1% | viability, T/C [31] 100% | viability, T/C [32] 94.5% | viability, T/C [33] 97.4% | viability, T/C [34] 96.5% | viability, T/C [35] 102% | viability, T/C [36] 71% | viability, T/C [37] 90.6% | viability, T/C [38] 89.3% | viability, T/C [39] 105% | viability, T/C [40] 99% | viability, T/C [41] 92.8% | viability, T/C [42] 68.9% | viability, T/C [43] 82.7% | viability, T/C [44] 86% | viability, T/C [45] 84.8% | viability, T/C [46] 93.1% | viability, T/C [47] 87.7% | viability, T/C [48] 70.3%
> 10 µM: IC50 (second compound 0.0316 µM) | IC50 (second compound 0.1 µM) | IC50 (second compound 0.316 µM) | IC50 (second compound 1 µM) | IC50 (second compound 3.16 µM) | IC50 (second compound 10 µM)

CC1(C)CCC(Nc2ncc(C(F)(F)F)c(-c3c[nH]c4c(P(C)(C)=O)c(C#N)ccc34)n2)CN1 (stereo not given) + COc1c(OCCCN2CCOCC2)ccc2c3n(c(=NC(=O)c4cnc(N)nc4)nc12)CCN3
inactive: viability, T/C [1] 12.1% | viability, T/C [2] 11.7% | viability, T/C [3] 11.3% | viability, T/C [4] 12.8% | viability, T/C [7] 13.1% | viability, T/C [8] 12.1% | viability, T/C [9] 13% | viability, T/C [10] 12.4% | viability, T/C [13] 9.55% | viability, T/C [14] 11.7% | viability, T/C [15] 11.4% | viability, T/C [16] 14.8% | viability, T/C [19] 9.95%
< 0.0316 µM: IC50 (second compound 0.00316 µM) | IC50 (second compound 0.01 µM) | IC50 (second compound 0.0316 µM) | IC50 (second compound 0.1 µM) | IC50 (second compound 0.316 µM) | IC50 (second compound 1 µM)
active: viability, T/C [5] 15.3% | viability, T/C [6] 3.31% | viability, T/C [11] 15.3% | viability, T/C [12] 1.45% | viability, T/C [17] 13.4% | viability, T/C [18] 1.98% | viability, T/C [20] 8.41% | viability, T/C [21] 9.5% | viability, T/C [22] 9.61% | viability, T/C [23] 8.75% | viability, T/C [24] 0.91% | viability, T/C [25] 3.76% | viability, T/C [26] 3.49% | viability, T/C [27] 5.12% | viability, T/C [28] 4.26% | viability, T/C [29] 4.19% | viability, T/C [30] 0.4% | viability, T/C [31] 1.25% | viability, T/C [32] 1.35% | viability, T/C [33] 1.58% | viability, T/C [34] 1.61% | viability, T/C [35] 1.3% | viability, T/C [36] 0.43%

CC1(C)CCC(Nc2ncc(C(F)(F)F)c(-c3c[nH]c4c(P(C)(C)=O)c(C#N)ccc34)n2)CN1 (stereo not given) + CC(Nc1ncnc2nc[nH]c12)c1cc2cccc(Cl)c2c(=O)n1-c1ccccc1
active: viability, T/C [17] 13.8% | viability, T/C [18] 1.65% | viability, T/C [24] 2.44% | viability, T/C [29] 14% | viability, T/C [30] 2.31% | viability, T/C [36] 1.85% | viability, T/C [42] 1.2% | viability, T/C [48] 0.91%
inactive: viability, T/C [13] 13.4% | viability, T/C [14] 10.9% | viability, T/C [15] 15.2% | viability, T/C [16] 12.4% | viability, T/C [19] 12.6% | viability, T/C [20] 13.2% | viability, T/C [21] 15.7% | viability, T/C [22] 16% | viability, T/C [23] 16.1% | viability, T/C [25] 11.3% | viability, T/C [26] 13.9% | viability, T/C [27] 12.4% | viability, T/C [28] 14.8% | viability, T/C [31] 12.3% | viability, T/C [32] 13.2% | viability, T/C [33] 14% | viability, T/C [34] 14.3% | viability, T/C [35] 16.8% | viability, T/C [37] 10.7% | viability, T/C [38] 13.8% | viability, T/C [39] 13.7% | viability, T/C [40] 15% | viability, T/C [41] 16% | viability, T/C [43] 17% | viability, T/C [44] 16.9% | viability, T/C [45] 14.9% | viability, T/C [46] 21.3% | viability, T/C [47] 16.8%
< 0.0316 µM: IC50 (second compound 0.0316 µM) | IC50 (second compound 0.1 µM) | IC50 (second compound 0.316 µM) | IC50 (second compound 1 µM) | IC50 (second compound 3.16 µM) | IC50 (second compound 10 µM)
